We go through two molecules from patent publication US10238658B2, “1-pyrazolyl-3-(4-((2-anilinopyrimidin-4-yl) oxy) napththalen-1-yl) ureas as p38 MAP kinase inhibitors” (Respivert Limited, priority 2011, dated 2019).

Molecules are shown by their SMILES.

In test [1] the test system is TNFα. The test can be described thus: LPS-induced TNFα release in THP-1 cells. It is filed as cell-based. Conditions: Homo sapiens, THP-1, THP1 cells. The protocol:
THP-1 cells, a human monocytic cell line, were stimulated with 3 μg/mL of LPS (from E. Coli; 0111:B4, Sigma) for 4 hr and the supernatant collected for determination of the TNFα concentration by sandwich ELISA (Duo-set, R&D systems). The inhibition of TNFα production was calculated at each concentration by comparison with vehicle control.

In test [2] the test system is TNFα. The test can be described thus: LPS-induced TNFα release in d-U937 cells. The test is classed as cell-based. Conditions: Homo sapiens, dU937, dU937 cells; relative to 10 μg/mL BIRB796; read-out: LPS Induced Release TNFα REC50 (dU937). A digest of the protocol: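 U937 cells differentiated with PMA (100 ng/mL, 48–72 hr) were pre-incubated with compound for 2 hr, then stimulated with E. coli O111:B4 LPS (0.1 μg/mL) for 4 hr. Supernatant cytokine measured by sandwich ELISA; inhibition vs vehicle control at each concentration, REC50 taken from the concentration-response curve.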

The next test deals with IL-8. The test can be described thus: Rhinovirus-induced IL-8 release in BEAS2B cells. Conditions: Homo sapiens, BEAS-2B. The test is classed as cell-based. A digest of the protocol:
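BEAS2B cells infected with HRV RV16 at MOI 5 for 2 h at 33 °C, washed, then cultured 72 h; compounds given 2 h before infection and again after washout. IL-8 measured in supernatant by ELISA; surface ICAM-1 by cell-based ELISA (OD450–655), normalised to crystal violet cell count (OD595).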

The subject of another test is HRV16. Kind of test: HRV16 induced CPE in MRC5 cells. The test is classed as cell-based. Conditions: Human rhinovirus sp.; for inhibition at 0.04 µg/mL: HRV16, MRC5, at 0.04 μg/mL, read-out: HRV CPE (MRC5) % inhibition. On the procedure:
The supernatants were aspirated, and then fresh media added followed by incubation for 4 days. Where appropriate, cells were pre-incubated with compound or DMSO for 2 hr, and the compounds and DMSO added again after washout of the virus.
The percentage inhibition for each well was calculated. The IC50 value was calculated from the concentration-response curve generated by the serial dilutions of the test compounds.

The subject of another test is RSV A2. The test can be described thus: In vitro RSV virus load (F-protein ELISA) in primary bronchial epithelial cells. Conditions: human respiratory syncytial virus, Primary bronchial epithelial cell; for inhibition at 0.04 µg/mL: at 0.04 μg/mL, read-out: RSV (F-Elisa) (HBEC) % inhibition. The test is classed as cell-based, respiratory syncytical virus. The protocol: Normal human bronchial epithelial cells (NHBEC) grown in 96 well plates were infected with RSV A2 (Strain A2, HFA, Salisbury, UK) at an MOI of 0.001 in the LHC8 Media:RPMI-1640 (50:50) containing 15 mM magnesium chloride and incubated for 1 hr at 37° C. for adsorption. The cells were then washed with PBS (3×200 μL), fresh media (200 μL) was added and incubation continued for 4 days. Where appropriate, cells were pre-incubated with the compound or DMSO for 2 hr, and then added again after washout of the virus.
The cells were fixed with 4% formaldehyde in PBS solution (50 μL) for 20 min, washed with washing buffer (3×200 μL; PBS including 0.5% BSA and 0.05% Tween-20) and incubated with blocking solution (5% condensed milk in PBS) for 1 hr. Cells were then washed with washing buffer (3×200 μL) and incubated for 1 hr at RT with anti-RSV (2F7) F-fusion protein antibody (40 μL; mouse monoclonal, lot 798760, Cat. No. ab43812, Abcam) in 5% BSA in PBS-tween). After washing, cells were incubated with an HRP-conjugated secondary antibody solution (50 μL) in 5% BSA in PBS-Tween (lot 00053170, Cat.No. P0447, Dako) and then TMB substrate (50 μL; substrate reagent pack, lot 269472, Cat. No. DY999, R&D Systems, Inc.) was added. This reaction was stopped by the addition of 2N H2SO4 (50 μL) and the resultant signal was determined colorimetrically (OD: 450 nm with a reference wavelength of 655 nm) in a microplate reader (Varioskan® Flash, ThermoFisher Scientific).
After washing with washing buffer, 1% SDS in distilled water (100 μL) was added to each well, and plates were shaken lightly on the shaker for 1 hr prior to reading the absorbance at 595 nm. The measured OD450-655 readings were corrected to the cell number by dividing the OD450-655 by the OD595 readings. The percentage inhibition for each well was calculated and the IC50 value was calculated from the concentration-response curve generated from the serial dilutions of compound.
A general note: An ELISA detects its analyte on a solid surface through an enzyme-linked reagent.

Another test has as its system PBMC. Kind of test: Cell mitosis assay. It is filed as cell-based. Conditions: Homo sapiens; for inhibition at 5 µg/mL: read-out: Mitosis Assay % inhibition in PBMC Cells at concn 5 μg/mL. The protocol: Peripheral blood mononucleocytes (PBMCs) from healthy subjects were separated from whole blood (Quintiles, London, UK) using a density gradient (Histopaque®-1077, Sigma-Aldrich, Poole, UK). The PBMCs (3 million cells per sample) were subsequently treated with 2% PHA (Sigma-Aldrich, Poole, UK) for 48 hr, followed by a 20 hr exposure to varying concentrations of test compounds. At 2 hr before collection, PBMCs were treated with demecolcine (0.1 μg/mL; Invitrogen, Paisley, UK,) to arrest cells in metaphase. To observe mitotic cells, PBMCs were permeabilised and fixed by adding Intraprep (50 μL; Beckman Coulter, France), and stained with anti-phospho-histone 3 ([…]; #9701; Cell Signalling, Danvers, Mass.) and propidium iodide (1 mg/mL; Sigma-Aldrich, Poole, UK,) as previously described (Muehlbauer P. A. and Schuler M. J., Mutation Research, 2003, 537:117-130). Fluorescence was observed using an ATTUNE flow cytometer (Invitrogen, Paisley, UK), gating for lymphocytes.

As usually defined, the IC50 is the concentration that inhibits the measured activity by half. As to `Cc1ccc(-n2nc(C(C)(C)C)cc2NC(=O)Nc2ccc(Oc3ccnc(Nc4ccccc4)n3)c3ccccc23)cc1` [Example 1, 1-(3-(tert-Butyl)-1-(p-tolyl)-1H-pyrazol-5-yl)-3-(4-(2-(phenylamino)pyrimidin-4-yloxy)naphthalen-1-yl)urea], the IC50 in the test on TNFα [1] was determined as 3.4 nM; in the test with IL-8 (BEAS2B cells, HRV-16), 0.036 nM; in the test with HRV16 (HRV16, MRC5 cells, HRV-16) it was 17.1 nM; with RSV A2 (read-out: RSV (F-Elisa) (HBEC) IC50) it was 15.4 nM. The EC50 in the test with TNFα [2] is 2.3 nM. Moreover, the inhibition at 0.04 µg/mL stood at 57% with HRV16 and 85% with RSV A2. Further, the inhibition at 1 µg/mL in the test on PBMC (read-out: Mitosis Assay % inhibition in PBMC Cells at concn 1 μg/mL) is 13.7%. Besides, the inhibition at 5 µg/mL with PBMC is 31.3%.
`Cc1ccc(-n2nc(C(C)(C)C)cc2NC(=O)Nc2ccc(Oc3ccnc(Nc4cccc(O)c4)n3)c3ccccc23)cc1` [Example 2, 1-(3-(tert-Butyl)-1-(p-tolyl)-1H-pyrazol-5-yl)-3-(4-((2-((3-hydroxyphenyl)amino)pyrimidin-4-yl)oxy)naphthalen-1-yl)urea] showed an IC50 in the test with TNFα [1] of 2.8 nM. For the same molecule, in the test with TNFα [2], the EC50 stood at 2.4 nM. For the same molecule, the inhibition at 0.04 µg/mL with IL-8 (at 0.04 μg/mL, read-out: HRV IL-8 (BEAS2B) % inhibition) is 100%; in the test with HRV16, 5%; in the test on RSV A2, 42%. Besides, in the test on PBMC, the inhibition at 5 µg/mL is 70.6%.
